≈ marks a conversion by molar mass, not a printed value.
Tests used:
Prot. rettg. BC 17 = experiment: serial dilution test in the microtiter system, minimum inhibitory concentration; format: cell-based, Proteus rettgeri; conditions: Providencia rettgeri, 37° C., 18 to 20 hours
Protocol: (§1) The tests were performed using the serial dilution test in the microtiter system. The effect of the text compounds on bacteriostasis was examined at the following concentrations: 128, 64, 32, 16, 8, 4, 2, 1, 0.5, 0.25, 0.12, 0.06, 0.03, and 0.015 μg/ml. The nutrient medium consisted of 10 gm of peptone, 8 g of meat extract oxoid, 3 g of sodium chloride, and 2 g of sec. sodium phosphate diluted with distilled water to […] (pH 7.2-7.4). The age of the primary cultures was approximately 20 hours. The standardization of the bacteria suspension was effected using a photometer according to the method of Eppendorf (test tube .phi. 14 mm, filter 546 nm), using for comparison a barium sulfate suspension formed by the addition of 3.0 ml of 1% barium chloride solution to 97 ml of 1% sulfuric acid. After the standardization, the test pathogens were diluted further in a ratio of 1:1500 with a common salt solution.
(§2) Sixteen milligrams of a particular test compound were put into a 10 ml measuring flask, and the flask was subsequently filled to the mark with solvent. Further dilutions in the series were made with distilled water or the appropriate solvent.
(§3) The cavities of the microtiter plates were filled sequentially with 0.2 ml of nutrient medium, 0.01 ml of the appropriate test compound solution, and then 0.01 ml of the standardized bacteria suspension. The bacteria were incubated at 37° C. for from 18 to 20 hours. Control tests using only the solvent were carried out simultaneously.
(§4) The measurement was carried out macroscopically to determine the minimum inhibitory concentration (the lowest, still bacteriostatically effective concentration).
(§5) The following test organisms were used:
(§6) Staphylococcus aureus SG 511, Escherichia coli ATCC 11 775, Pseudomonas aeruginosa Hamburgensis and Pseudomonas aeruginosa Walter, Serratia marcescens ATCC 13 880, Klebsiella pneumoniea ATCC 10 031 and BC 6, Proteus mirabilis BC 17, Proteus rettgeri BC 7, Enterobacter cloaceae ATCC 13 047, and E. coli R+TEM (β-lactamase carrier), and Klebsiella pneumoniae 1082 E (β-lactamase carrier).
(§7) Representative compounds of the compounds of Formula I were tested. Those representative compounds comprised sodium salts of compounds of Formula I wherein R, D, and Y had the meanings set forth in the following table: […]

[1] = system: Serratia marcescens ATCC 13 880; experiment: as above; format: cell-based; conditions: Serr. marcesc. ATCC 13880, 37° C., 18 to 20 hours
Protocol: as §1, §2, §3, §4, §5, §6, §7

Proteus mirabilis BC 17 = experiment: as above; format: cell-based; conditions: BC17, Prot. mir. BC 17, 37° C., 18 to 20 hours
Protocol: as §1, §2, §3, §4, §5, §6, §7

[2] = system: Enterobacter cloaceae ATCC 13 047; experiment: as above; format: cell-based; conditions: Enterob. cloacae ATCC 13047, 37° C., 18 to 20 hours
Protocol: as §1, §2, §3, §4, §5, §6, §7

[3] = system: Klebsiella pneumoniae 1082 E (β-lactamase carrier); experiment: as above; format: cell-based; conditions: Klebs. pneum. 1082 E, 37° C., 18 to 20 hours
Protocol: as §1, §2, §3, §4, §5, §6, §7

[4] = system: Escherichia coli ATCC 11 775; experiment: as above; format: cell-based; conditions: E. coli ATCC 11775, 37° C., 18 to 20 hours
Protocol: as §1, §2, §3, §4, §5, §6, §7

[5] = system: Staphylococcus aureus SG 511; experiment: as above; format: cell-based; conditions: SG511, St. aureus SG 511, 37° C., 18 to 20 hours
Protocol: as §1, §2, §3, §4, §5, §6, §7

[6] = system: Pseudomonas aeruginosa Hamburgensis; experiment: as above; format: cell-based; conditions: Pseud. aeru Hbg., 37° C., 18 to 20 hours
Protocol: as §1, §2, §3, §4, §5, §6, §7

[7] = system: Pseudomonas aeruginosa Walter; experiment: as above; format: cell-based; conditions: Pseud. aeru Walter, 37° C., 18 to 20 hours
Protocol: as §1, §2, §3, §4, §5, §6, §7

[8] = system: Klebsiella pneumoniea ATCC 10 031; experiment: as above; format: cell-based, Klebsiella pneumoniae; conditions: Klebs. pneum. ATCC 10031, 37° C., 18 to 20 hours
Protocol: as §1, §2, §3, §4, §5, §6, §7

[9] = system: Klebsiella pneumoniea BC 6; experiment: as above; format: cell-based, Klebsiella pneumoniae; conditions: BC6, Klebs. pneum. BC 6, 37° C., 18 to 20 hours
Protocol: as §1, §2, §3, §4, §5, §6, §7

E. coli ATCC 11775 = experiment: in vivo test against experimental intraperitoneal infection in mice; design: species or system E. coli in female mice of the NMRI strain; conditions: Escherichia coli, ATCC11775, sc, 168 h; subcutaneous, one treatment 1 hour after i.p. infection, observation 7 days; read-out: ED50 (dose at which 50% of the animals survived)
Protocol: A number of the compounds according to the invention were tested in vivo against experimental infections in mice. E. coli ATCC 11775 was used as the pathogenic bacteria. An intraperitoneal infection was produced with 0.2 ml of a bacterial suspension (with 5% mucin), which corresponds to about 1.4×10^6 E. coli bacteria per mouse. Female mice of the NMRI strain were divided up into groups of 10 animals. Two groups were untreated, and the other groups were treated with various doses of the cephalosporins according to the invention, administered subcutaneously, to determine the ED50 (does at which 50% of the animals survived). One treatment was administered 1 hour after the infection.
In both cases, the observation period was 7 days.

Row | SMILES | MIC (Prot. rettg. BC 17) [µg/mL] | MIC [1] [µg/mL] | MIC (Proteus mirabilis BC 17) [µg/mL] | MIC [2] [µg/mL] | MIC [3] [µg/mL] | MIC [4] [µg/mL] | MIC [5] [µg/mL] | MIC [6] [µg/mL] | MIC [7] [µg/mL] | MIC [8] [µg/mL] | MIC [9] [µg/mL] | ED50 (E. coli ATCC 11775) [mg/kg]
1 | CC(=O)OCC1=C(C(=O)O)N2C(=O)[C@@H](NC(=O)C(NC(=O)Nc3cnc(Nc4ccc(S(N)(=O)=O)cc4)nc3O)c3csc(N)n3)[C@H]2SC1 (some centres unmarked) [Compound E] | 0.12 (≈ 0.163 µM) | 0.12 (≈ 0.163 µM) | 0.12 (≈ 0.163 µM) | 0.25 (≈ 0.34 µM) | 32 (≈ 43.6 µM) | 0.03 (≈ 0.0408 µM) | 0.5 (≈ 0.68 µM) | 16 (≈ 21.8 µM) | 8 (≈ 10.9 µM) | 0.06 (≈ 0.0817 µM) | 0.06 (≈ 0.0817 µM) | 0.1 to 0.3
2 | CO/N=C(\C(=O)N[C@@H]1C(=O)N2C(C(=O)O)=C(COC(N)=O)CS[C@H]12)c1ccco1 [Cefuroxime, reference compound] | 2 (≈ 4.71 µM) | 8 (≈ 18.9 µM) | 0.5 (≈ 1.18 µM) | 32 (≈ 75.4 µM) | – | 8 (≈ 18.9 µM) | 1 (≈ 2.36 µM) | > 128 | > 128 | 2 (≈ 4.71 µM) | 4 (≈ 9.43 µM) | > 100
3 | Cn1nnnc1SCC1=C(C(=O)O)N2C(=O)[C@@H](NC(=O)C(NC(=O)Nc3cnc(NC4CCC(O)CC4)nc3O)c3csc(N)n3)[C@H]2SC1 (some centres unmarked) [D] | 0.12 (≈ 0.164 µM) | 0.25 (≈ 0.341 µM) | 0.12 (≈ 0.164 µM) | 0.25 (≈ 0.341 µM) | 32 (≈ 43.6 µM) | 0.06 (≈ 0.0818 µM) | 2 (≈ 2.73 µM) | 16 (≈ 21.8 µM) | 16 (≈ 21.8 µM) | 0.06 (≈ 0.0818 µM) | 0.06 (≈ 0.0818 µM) | < 0.3
4 | Cn1nnnc1SCC1=C(C(=O)O)N2C(=O)[C@@H](NC(=O)C(NC(=O)Nc3cnc(NCCCO)nc3O)c3csc(N)n3)[C@H]2SC1 (some centres unmarked) [C] | 0.25 (≈ 0.36 µM) | 0.25 (≈ 0.36 µM) | 0.06 (≈ 0.0865 µM) | 0.5 (≈ 0.721 µM) | 32 (≈ 46.1 µM) | 0.06 (≈ 0.0865 µM) | 2 (≈ 2.88 µM) | 32 (≈ 46.1 µM) | 32 (≈ 46.1 µM) | 0.25 (≈ 0.36 µM) | 0.12 (≈ 0.173 µM) | –
5 | Cc1nnc(SCC2=C(C(=O)O)N3C(=O)[C@@H](NC(=O)Cn4cnnn4)[C@H]3SC2)s1 [Cefazoline, reference compound] | > 128 | > 128 | 4 (≈ 8.8 µM) | > 128 | > 128 | 4 (≈ 8.8 µM) | 0.06 (≈ 0.132 µM) | > 128 | > 128 | 1 (≈ 2.2 µM) | 2 (≈ 4.4 µM) | –
6 | CCN1CCN(C(=O)N[C@@H](C(=O)N[C@@H]2C(=O)N3C(C(=O)O)=C(CSc4nnnn4C)CS[C@H]23)c2ccc(O)cc2)C(=O)C1=O [Cefaperazone (T 1551), reference compound] | – | – | – | – | – | – | – | – | – | – | – | 3.1
7 | CCCNc1ncc(NC(=O)NC(C(=O)N[C@@H]2C(=O)N3C(C(=O)O)=C(CSc4nnnn4C)CS[C@H]23)c2csc(N)n2)c(O)n1 (some centres unmarked) [B] | 0.12 (≈ 0.177 µM) | 0.25 (≈ 0.369 µM) | 0.06 (≈ 0.0885 µM) | 0.25 (≈ 0.369 µM) | 16 (≈ 23.6 µM) | 0.06 (≈ 0.0885 µM) | 1 (≈ 1.48 µM) | 32 (≈ 47.2 µM) | 32 (≈ 47.2 µM) | 0.12 (≈ 0.177 µM) | 0.06 (≈ 0.0885 µM) | –
8 | Cn1nnnc1SCC1=C(C(=O)O)N2C(=O)[C@@H](NC(=O)C(NC(=O)Nc3cnc(Nc4ccc(S(N)(=O)=O)cc4)nc3O)c3csc(N)n3)[C@H]2SC1 (some centres unmarked) [F] | 0.25 (≈ 0.316 µM) | 0.5 (≈ 0.632 µM) | 0.25 (≈ 0.316 µM) | 0.5 (≈ 0.632 µM) | 64 (≈ 80.9 µM) | 0.06 (≈ 0.0759 µM) | 1 (≈ 1.26 µM) | 16 (≈ 20.2 µM) | 16 (≈ 20.2 µM) | 0.12 (≈ 0.152 µM) | 0.12 (≈ 0.152 µM) | –
9 | Cn1nnnc1SCC1=C(C(=O)O)N2C(=O)[C@@H](NC(=O)C(NC(=O)Nc3cnc(C4CC4)nc3O)c3csc(N)n3)[C@H]2SC1 (some centres unmarked) [A] | 0.12 (≈ 0.182 µM) | 0.25 (≈ 0.378 µM) | 0.03 (≈ 0.0454 µM) | 0.5 (≈ 0.757 µM) | 32 (≈ 48.4 µM) | 0.03 (≈ 0.0454 µM) | 1 (≈ 1.51 µM) | 32 (≈ 48.4 µM) | 32 (≈ 48.4 µM) | 0.03 (≈ 0.0454 µM) | 0.06 (≈ 0.0908 µM) | 0.5
10 | Cn1nnnc1SCC1=C(C(=O)O)N2C(=O)[C@@H](NC(=O)C(NC(=O)Nc3cnc(NCc4ccc(O)cc4)nc3O)c3csc(N)n3)[C@H]2SC1 (some centres unmarked) [G] | 0.06 (≈ 0.0809 µM) | 0.12 (≈ 0.162 µM) | 0.03 (≈ 0.0404 µM) | 0.12 (≈ 0.162 µM) | 16 (≈ 21.6 µM) | 0.03 (≈ 0.0404 µM) | 0.5 (≈ 0.674 µM) | 16 (≈ 21.6 µM) | 8 (≈ 10.8 µM) | 0.06 (≈ 0.0809 µM) | 0.03 (≈ 0.0404 µM) | < 0.2
